From patent US11912683B1 (priority 2023, dated 2024) come the findings set out here.

In brackets after ≈: the same amount, converted by molar mass. Where only a bound is given, the exact number is not on record here.

Data set [1] deals with Mycobacterium tuberculosis H37Rv. The experiment in a line: Anti-tubercular activity, colorimetric Resazurin Microplate Assay (REMA), H37Rv. The format is cell-based. As to conditions: 192 h, read-out: Anti-tubercular activity against Mycobacterium tuberculosis H37Rv (MIC).

Consider `COC(=O)C1=C(C)NC(=S)NC1c1ccc(C(F)(F)F)cc1` (stereo not drawn) [DHPM-KN3, Methyl 6-methyl-2-thioxo-4-(4-(trifluoromethyl)phenyl)-1,2,3,4-tetrahydropyrimidine-5-carboxylate], for which the melting point came out at 190 °C.
`CC1=C(C(=O)N2CCCCC2)C(c2ccccc2C)NC(=S)N1` (stereo not drawn) [DHPM-KN8, (6-Methyl-2-thioxo-4-(o-tolyl)-1,2,3,4-tetrahydropyrimidin-5-yl)(piperidin-1-yl)methanone] had a melting point of 260 °C. The MIC in data set [1] is 128 µg/mL (≈ 389 µM).
On to `CC1=C(C(=O)N2CCCC2)C(c2ccccc2)NC(=S)N1` (stereo not drawn) [DHPM-KN14, (6-Methyl-4-phenyl-2-thioxo-1,2,3,4-tetrahydropyrimidin-5-yl)(pyrrolidin-1-yl)methanone], for which the melting point was determined as 198 °C.
On to `CC1=C(C(=O)N2CCCCC2)C(c2ccccc2O)NC(=S)N1` (stereo not drawn) [DHPM-KN12, (4-(2-Hydroxyphenyl)-6-methyl-2-thioxo-1,2,3,4-tetrahydropyrimidin-5-yl)(piperidin-1-yl)methanone], for which the melting point stood at 223 °C.
As to `COC(=O)C1=C(C)NC(=O)NC1c1ccc([N+](=O)[O-])cc1[N+](=O)[O-]` (stereo not drawn) [DHPM-KN4, Methyl 4-(2,4-dinitrophenyl)-6-methyl-2-oxo-1,2,3,4-tetrahydropyrimidine-5-carboxylate], the melting point is 210 °C. In addition, the MIC in data set [1] worked out at 16 µg/mL (≈ 47.6 µM).
Turning to `CC1=C(C(=O)N2CCCCC2)C(c2ccc(F)cc2)NC(=S)N1` (stereo not drawn) [DHPM-KN2, (4-(4-Fluorophenyl)-6-methyl-2-thioxo-1,2,3,4-tetrahydropyrimidin-5-yl)(piperidin-1-yl)methanone], the melting point is 234 °C.
The same measure, in the same setting: the value for `CC1=C(C(=O)N2CCCCC2)C(c2ccc(Cl)cc2)NC(=S)N1` (stereo not drawn) [DHPM-KN9, (4-(4-Chlorophenyl)-6-methyl-2-thioxo-1,2,3,4-tetrahydropyrimidin-5-yl)(piperidin-1-yl)methanone] was 218 °C; that for `CC1=C(C(=O)N2CCCCC2)C(c2ccc(O)cc2)NC(=S)N1` (stereo not drawn) [DHPM-KN11, (4-(4-Hydroxyphenyl)-6-methyl-2-thioxo-1,2,3,4-tetrahydropyrimidin-5-yl)(piperidin-1-yl)methanone] was 274 °C.
In turn, `COc1ccc(C2NC(=S)NC(C)=C2C(=O)N2CCCCC2)cc1` (stereo not drawn) [DHPM-KN7, (4-(4-Methoxyphenyl)-6-methyl-2-thioxo-1,2,3,4-tetrahydropyrimidin-5-yl)(piperidin-1-yl)methanone] showed a melting point of 124 °C. Besides, the MIC in data set [1] was greater than 64 µg/mL.
For `CC1=C(C(=O)N2CCCCC2)C(c2ccc([N+](=O)[O-])cc2)NC(=S)N1` (stereo not drawn) [DHPM-KN5, (6-Methyl-4-(4-nitrophenyl)-2-thioxo-1,2,3,4-tetrahydropyrimidin-5-yl)(piperidin-1-yl)methanone], the melting point came out at 230 °C. Also, in data set [1], the minimum inhibitory concentration (MIC) was determined as 8 µg/mL (≈ 22.2 µM).
`CC1=C(C(=O)N2CCCCC2)C(c2ccc(Br)cc2)NC(=S)N1` (stereo not drawn) [DHPM-KN6, (4-(4-Bromophenyl)-6-methyl-2-thioxo-1,2,3,4-tetrahydropyrimidin-5-yl)(piperidin-1-yl)methanone]: the melting point worked out at 258 °C. In addition, the MIC in data set [1] was greater than 64 µg/mL.
Taken in the same sequence, the figures for `CC1=C(C(=O)N2CCCCC2)C(c2ccccc2)NC(=S)N1` (stereo not drawn) [DHPM-KN1, (6-Methyl-4-phenyl-2-thioxo-1,2,3,4-tetrahydropyrimidin-5-yl)(piperidin-1-yl)methanone] were 240 °C and 16 µg/mL (≈ 50.7 µM).
For `CC1=C(C(=O)N2CCCCC2)C(c2ccc(C(F)(F)F)cc2)NC(=S)N1` (stereo not drawn) [DHPM-KN10, (6-Methyl-2-thioxo-4-(4-(trifluoromethyl)phenyl)-1,2,3,4-tetrahydropyrimidin-5-yl)(piperidin-1-yl)methanone] the same measures were 172 °C and 128 µg/mL (≈ 334 µM).
`CC1=C(C(=O)N2CCCCC2)C(c2ccc(O)c(O)c2)NC(=S)N1` (stereo not drawn) [DHPM-KN13, (4-(3,4-Dihydroxyphenyl)-6-methyl-2-thioxo-1,2,3,4-tetrahydropyrimidin-5-yl)(piperidin-1-yl)methanone] came in with a melting point of 173 °C.

Broadly, the melting point is the temperature of the solid-liquid transition. The MIC is the lowest concentration found to suppress growth.
